Data as given in the supplement of paper PMC10307832.

Key:
Assay in all cases: relative viability (nuclei count vs DMSO), 5 days (fraction); higher = more cells survive
[1] = compound: CC1=NC=CC(=C1)C2=CC=C(C=C2)CC(=O)NC3=CC=C(C=C3)C4=CN=CC=C4 [Wnt-C59] + CS(=O)(=O)CCNCc1ccc(-c2ccc3ncnc(Nc4ccc(OCc5cccc(F)c5)c(Cl)c4)c3c2)o1 [Lapatinib] (partner 2 µM)
Summary of the method: (§1)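 A single step with final 0.05% Triton X-100, 1% formaldehyde and 1 ug/ml Hoechst fixed the cells and stained nuclei 5 days after treatment. Lung cancer cell lines in 1536-well plates had been treated by pin tool the day after seeding with one drug alone or a fixed anchor-drug dose plus five library-drug doses (not always all listed) in √10 steps, and nuclei were counted on 4× images. Relative viability is the ratio of nuclei in treated wells to nuclei in vehicle wells, taken as the median of duplicate plates.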

[2] = compound: CS(=O)(=O)CCNCc1ccc(-c2ccc3ncnc(Nc4ccc(OCc5cccc(F)c5)c(Cl)c4)c3c2)o1 [Lapatinib] + COc1cc2c(Oc3ccc(NC(=O)C4(C(=O)Nc5ccc(F)cc5)CC4)cc3F)ccnc2cc1OCCCN1CCOCC1 [Foretinib] (partner 0.25 µM)
Summary of the method: as §1

[3] = compound: CS(=O)(=O)CCNCc1ccc(-c2ccc3ncnc(Nc4ccc(OCc5cccc(F)c5)c(Cl)c4)c3c2)o1 [Lapatinib] + C[C@@H](Oc1cc(-c2cnn(C3CCNCC3)c2)cnc1N)c1c(Cl)ccc(F)c1Cl [Crizotinib] (partner 1 µM)
Summary of the method: as §1

[4] = compound: CS(=O)(=O)CCNCc1ccc(-c2ccc3ncnc(Nc4ccc(OCc5cccc(F)c5)c(Cl)c4)c3c2)o1 [Lapatinib] + Nc1ncn([C@H]2C[C@H](O)[C@@H](CO)O2)c(=O)n1 [Decitabine] (partner 2 µM)
Summary of the method: as §1

Cell Line	relative viability ([1]; first compound 0.001 µM)	relative viability ([1]; first compound 0.01 µM)	relative viability ([1]; first compound 0.03162 µM)	relative viability ([1]; first compound 0.1 µM)	relative viability ([2]; first compound 0.02 µM)	relative viability ([2]; first compound 0.2 µM)	relative viability ([2]; first compound 0.6325 µM)	relative viability ([2]; first compound 2 µM)	relative viability ([3]; first compound 0.02 µM)	relative viability ([3]; first compound 0.2 µM)	relative viability ([3]; first compound 0.6325 µM)	relative viability ([3]; first compound 2 µM)	relative viability ([4]; first compound 0.02 µM)	relative viability ([4]; first compound 0.2 µM)	relative viability ([4]; first compound 0.6325 µM)	relative viability ([4]; first compound 2 µM)	relative viability ([2]; first compound 0.06325 µM)	relative viability ([3]; first compound 0.06325 µM)	relative viability ([4]; first compound 0.06325 µM)
NCI-H1993	0.734	0.832	0.852	0.825	0.691	0.75	0.71	0.762	0.854	0.796	0.737	0.742	0.68	0.555	0.64	0.462			
NCI-H2405	1.02		0.968	0.95	1.04	1.05	1.02	0.92	0.628	0.884	0.824	0.767			0.709	0.616	0.911	0.753	0.602
NCI-H661	0.418	0.613	0.558	0.577	0.972	0.856	0.666	0.62	0.979	1.29	1.05	0.762	0.48	0.489	0.387	0.423	0.926	1.15	0.474
COR-L 105	0.342	0.381	0.407	0.358	0.987	0.689	0.491	0.582	0.727	0.639	0.58	0.279	0.62	0.586	0.613	0.376	0.928	0.635	0.538
NCI-H1437	0.851	0.8	0.89	0.828	1.23	1.32	1.2	1.12	0.85	0.94	0.914	1	0.603	0.56	0.53	0.569	1.33	0.919	0.527
NCI-H2009	0.993	1.04	0.903	0.881	1.17	1.26	1.22	1.17	1.09	1.05	1.03	0.959	0.383	0.342	0.353	0.357	1.25	1.05	0.4
NCI-H23	1.14	1.11	1.31	0.958		0.908	0.958	0.898		0.504	0.396	0.412		0.315	0.353	0.323			
201T	0.985	1.04	1.03	0.991	1.18	1.03	1.03	0.76	0.869	1.02	0.966	0.977	0.845	0.813	0.827	0.817		0.996	0.812
NCI-H520	0.809	0.894	0.878	0.827	0.891	0.855	1.01	0.67	0.726	0.863	0.812	0.745	0.433	0.572	0.529	0.575	0.672	0.759	0.494
A-427	1.04	1.01	1.09	1.11		1.1	1.08	0.859		0.945	0.936	0.77	0.561	0.597	0.614	0.498	0.905	0.804	0.519
NCI-H1975	0.816	0.863	0.934	0.882	0.924	1.02	0.835	0.715	0.949	1.05	0.85	0.736	0.374	0.389	0.397	0.312	0.855	0.837	0.413
NCI-H647	1.04	1.08	1.21	1.04	1.06	1.22	1.01	1.2	1.01	1.03	1.03	0.923	0.416	0.431	0.377	0.383	1.16	0.904	0.284
NCI-H3122	0.967	1.07	0.993	1.04	0.944	0.96	0.872	0.928	0.277	0.27	0.268	0.274	0.426	0.376	0.456	0.421	0.901	0.224	0.364
A549	1.04	1.02	0.966	0.988	0.952	1.04	0.918	0.877	0.735	0.73	0.674	0.616		0.305	0.291	0.133	0.872	0.675	0.224
NCI-H838	0.901	0.924	1.07	1.08	1.1	1.14	1.06	0.866	0.838	1.07	0.855	0.757	0.475	0.495	0.484	0.44	0.951	0.764	0.453
NCI-H460	0.863	0.999	1.11	0.889	0.923	0.998	0.966	0.69	0.892	1.11	0.802	0.983	0.429	0.542	0.435	0.461	1	0.953	0.488
NCI-H1650	0.761	0.74	0.708	0.698	1	1.03	1.01	0.684	0.977	0.854	0.9	0.596	0.362	0.418	0.371	0.503	1.08	0.795	0.509
NCI-H650	0.532	0.846	0.895	0.873		0.989	1.06	0.979		0.872	0.624	0.69		0.328	0.324	0.343	0.94	0.637	0.319
NCI-H2085	0.8	0.726	0.771	0.819		0.899	0.862	0.535	0.824	0.759	0.807	0.616	0.579	0.512	0.521	0.477	0.737	0.996	0.528
NCI-H2126	0.78	0.731	0.792	0.772		1.13	1.03	0.612		1.02	1.04	0.865	0.609	0.593	0.548	0.44		0.879	0.52
NCI-H1666	0.675	0.516	0.659	0.75	0.815	0.873	0.652	0.558	0.787	0.847	0.842	0.357	0.599	0.709	0.641	0.58	0.868	1.05	0.72
NCI-H727	0.891	0.761	0.787	0.966	0.617	0.673	0.708	0.691	0.77	0.657	0.718	0.572	0.756	0.915	0.915	0.917		0.663	
LC-2-ad	1.03	0.902	0.975	0.927		0.872	0.769	0.567		0.473	0.436	0.375		0.715	0.834	0.692	0.655	0.487	0.807
HCC-827	0.188	0.163	0.191	0.203	1.08	1.05	0.97	0.155	0.915	0.923	0.88	0.513	0.239	0.348	0.333	0.295	0.974	0.944	0.35
SK-LU-1	0.798	0.789	0.915	0.823	0.773	0.857	0.8	0.883		0.992	1.07	0.859	0.709	0.686	0.609	0.618	0.789	0.814	0.558
HCC-366	1.16	0.999	1.07	0.976		0.887	0.912	0.89		0.713	0.564	0.372		0.405	0.368	0.291	0.86	0.418	0.348
EPLC-272H	0.837	0.959	1.19	0.954		0.542	0.687	0.325		0.831	0.79	0.639		0.352	0.34	0.366		0.722	0.361
NCI-H322M	0.638	0.585	0.594	0.538	1.04	0.944	0.911	0.611	0.823	0.912	0.857	0.735	0.632	0.648	0.567	0.555	0.809	0.649	0.552
NCI-H1944	0.745	0.795	0.866	0.769	0.836	0.745	0.723	0.537		0.811	0.808	0.56	0.421	0.431	0.394	0.414	0.637		0.41
NCI-H1755	1.01	0.98	1.03	0.952	0.866	0.898	0.896	0.892	0.851	0.899	0.818	0.809	0.738	0.706	0.735	0.749	0.865	0.82	0.752
